Experimental data: patent publication US20110197288A1, “Transgenic animal for screening of compounds that modulate cell proliferation, and its use in the pharmaceutical field” (priority 2009, published 2011)

Legend:
bone marrow cells [1] = test: cell cycle phase analysis of bone marrow cells by FACS with propidium iodide staining; type: in vivo, mouse; details: bone marrow cells from 5FU treated mice, vehicle 11.2%, FIG. 8B
Experimental: (§1) As an example of application for development of anti-proliferative drugs, heterozygous individuals of the transgenic mouse line according to the invention were treated as follows: a first group was treated with 150 ug/kg 5-fluorouracil (5FU), a well-known chemotherapeutic agent, while another group was treated with saline as control (vehicle) for 2 and 5 days.
Cells were fixed with methanol acetone 4:1, stained with 0.1 mg/ml propidium iodide, a DNA fluorescent marker, and then subjected to FACS analysis.

[2] = test system: cell proliferation (luciferase reporter under CYCB2 promoter) in tissues; test: luciferase activity in tissue protein extracts of treated CYCB2-luciferase transgenic mice; type: in vivo, mouse; details: 150 ug/kg 5FU, 2 and 5 days, all tissues analysed, versus saline vehicle; FIG. 7
Experimental: For this purpose, organs were homogenized in lysis buffer and lysates were subjected to three cycles of freezing and thawing. Proteins were separated from DNA and lysosomes by centrifugation (13000×g for 30 min). After determining the protein concentration of the extract, the biochemical assay of luciferase activity was carried out by measuring luminescence emission with a luminometer. The relative luminescence units (RLU) determined during a measurement of 10 seconds were then expressed on the Y axis as RLU values per microgram protein. The results according to the graph in FIG. 2C indicate that, in the adult animal, light emission is restricted to organs characterized by basal homeostatic proliferation such as spleen, bone marrow, femur and sternum, or sites of active tissue remodeling in the mouse, such as joints of the feet, jaw, etc.
as §1
Mice were sacrificed and luciferase activity was evaluated in tissue protein extracts, as reported in the graph in FIG. 7.

bone marrow cells [3] = test: luciferase expression (RLU per microgram protein) in bone marrow cells of treated transgenic mice; type: in vivo, mouse; details: 5 day 5FU treatment, FIG. 8A
Experimental: To assess the expression of luciferase in proliferating progenitor cells, bone marrow cells, that are highly enriched in hematopoietic precursors, were collected by flushing the femurs with culture medium and enzyme activity was analyzed in protein extracts (Ciana et al 2001), as shown in the graph in FIG. 3A.
as §1

[4] = test system: skin of transgenic mouse (luciferase reporter under CYCB2 promoter); test: skin light emission imaging after cutaneous application of carcinogen to transgenic mouse; details: 0.24% DMBA solution in acetone on skin, day 7 relative to day 0; FIG. 9
Experimental: To evaluate this application, the skin of a transgenic mouse according to the invention was treated with DMBA, a carcinogen, and the stimulation of light emission was measured for the carcinogen-treated side compared to the side treated with vehicle alone.
In particular, a 0.24% DMBA solution in acetone was applied to the skin of transgenic individuals according to the invention. One week later (day 7 relative to day 0) the amount of luciferase produced was detected by measuring the light emission produced by the skin of the animals.

| SMILES | S phase cells (bone marrow cells [1]) [%] | luciferase activity in tissue protein extracts [2] | luciferase expression in bone marrow cells (bone marrow cells [3]) | induction of luciferase activity (light emission) versus region treated with vehicle alone [4] [fold] |
| --- | --- | --- | --- | --- |
| O=c1[nH]cc(F)c(=O)[nH]1 [5FU, 5-fluorouracil] | 1.97 | Reduced luciferase activity, until levels that were undetectable | reduced luciferase expression | – |
| Cc1c2ccccc2c(C)c2c1ccc1ccccc12 [DMBA, 7,12-dimethylbenz(a)anthracene] | – | – | – | 12.5 |
